Measurements from patent US20250290915A1, “METHOD FOR PREDICTING RESPONSIVENESS TO THERAPY” (CANCERTAIN LIMITED, priority 2022, published 2025).

Test system: cancer cells derived from the tissue sample of a patient with osteosarcoma
Assay: Drug response score assay on tissue sample, Example 10
Assay type: cell-based, human
Set-up: key to Drug response score, conc. 1 / Drug response score, conc. 2 / Drug response score, conc. 3 / Drug response score, conc. 4: normalized drug response metric per Gupta et al. 2020
Conditions: tissue sample; for Drug response score, conc. 1: conc. 1 per Table 31: Etop 1, DTIC 1.5, Ifos 0.125, Doce 0.02, Irinotecan 5 μg/ml; for Drug response score, conc. 2: conc. 2 per Table 31: Etop 4, DTIC 3, Ifos 0.25, Doce 0.2, Irinotecan 10 μg/ml; for Drug response score, conc. 3: conc. 3 per Table 31: Etop 20, DTIC 6, Ifos 5, Doce 2, Irinotecan 25 μg/ml; for Drug response score, conc. 4: conc. 4 per Table 31: Etop 100, DTIC 12, Ifos 10, Doce 10, Irinotecan 50 μg/ml
Method: Where a tissue sample was provided by each subject, cancer stem cells (CSCs, CD133^+), were isolated from said sample. Tumour marker cells were further isolated from each tissue sample. The remaining cells were designated tumour marker^+ cells.
First, disaggregation of the tissue samples was carried out. Disaggregation was dependent on the size of the tissue sample and the method of retrieval: • EBUS (Endobronchial Ultrasound Scan and Biopsy)—very small fragments of tissue in solution-spun at 1200 rpm for 5 minutes to collect tissue pellet • Bronchoscopy-larger fragments with larger amount of blood vessels • Broncho-lavage-similar to EBUS, spun at 1200 rpm for 5 minutes to collet tissue pellet
Once a pellet of tissue obtained, DMEM added to the tissue pellet and the material forced through a […] Smart strainer. Once a cell suspension was achieved, this was spun at 1200 rpm for 5 minutes and the supernatant removed. The cells were then resuspended to a volume of 60 μl.
20 μl of FcR block and 20 μl of CD133 microbeads were added to the resuspended cells, followed by incubation for 15 minutes at 4° C. The cells were then processed using an AutoMACS machine. This separates the […] into CD133^+ and CD133^− cells in 2 separate falcons. The falcon tubes are then centrifuged at 1200 rpm for 5 minutes.
The supernatant was removed from the CD133+falcon tube, and the cells resuspended in DMEM with 2 μl Cell Tox, 2 μl MT and 2 μl MT. 20 μl of the resuspended […] was then plated in each well which will contain an immunotherapy treatment.
The supernatant was removed from the CD133^− falcon tube, and the CD133^− cells contacted with 40 μl of a tumour separation microbeads cocktail containing microbeads bound to anti-CD31, anti-CD45, anti-Glycophorin-A (Gly-A) and an anti-fibroblast antibody.
This cocktail is used to separate out tumour marker cells using MACS, by separating out CD31^+, CD45^+ and Gly-A^+ cells. In addition, anti-fibroblast antibody-labelled beads are also used. The cocktail is added to the CD133^− falcon tube, followed by incubation for 15 minutes at 4° C. MACS is carried out using an AutoMACS machine. This cells which are not bound by the CD31, CD45, Gly-A and anti-fibroblast antibody beads are the tumour marker^+ cells.
The different cell types were each divided equally into populations, depending on the number of drugs/concentrations to be tested and plated on a cell-culture plate pre-coated with a scaffold of polycaprolactone (PCL) electrospun fibres and incubated at 37° C., 5% CO2, for 5 to (typically 10) minutes to facilitate cell attachment. After attachment, an initial imaging step was carried out using the RealTime-Glo™ MT assay from Promega (Catalogue No. G9711)) and the CellTox™ Green Cytotoxicity Assay (Promega, Catalogue No. G8741), carried out according to manufacturer's instructions. Following this initial imagining, the immunotherapeutic and/or chemotherapeutic agents were added to the cell populations as indicated below. After 10 minutes, the imagining step was repeated. The cell populations were then incubated at 37° C., 5% CO2 for 48 hours. The imaging step was then repeated. The cell populations were then re-dosed with the same immunotherapeutic and/or chemotherapeutic agents as indicated below, and incubated at 37° C., 5% CO2 for a further 48 hours. After this second 48 hour incubation, the imagining step was repeated for a final time.
At the end of this culture period, dose response scores were calculated using a normalized drug response metric as described in Gupta et al. (Communications Biology volume 3, Article number: 42 (2020), https://doi.org/10.1038/s42003-020-0765-z). The start readout for a given immunotherapeutic or chemotherapeutic agent at a given concentration was the to readout for said immunotherapeutic or chemotherapeutic agent at a specified concentration. […]

Row | Compound | Drug response score, conc. 1 | Drug response score, conc. 2 | Drug response score, conc. 3 | Drug response score, conc. 4
1 | CN(C)/N=N/c1[nH]cnc1C(N)=O [DTIC] | −0.7928 | 0.4035 | −0.0520 | 0.1714
2 | CCc1c2c(nc3ccc(OC(=O)N4CCC(N5CCCCC5)CC4)cc13)-c1cc3c(c(=O)n1C2)COC(=O)[C@]3(O)CC [Irina] | −0.0303 | −0.1454 | 0.2672 | −0.0433
